This note sets out measurements from patent US20180105561A1, “ANALOGS OF SODIUM CHANNEL PEPTIDE TOXIN” (priority 2010, published 2018).

Where a SMILES comes first, the peptide text is derived from it. Bridges are numbered along the chain shown (N, C = ends).

One assay concerns Nav1.2 (rBIIa). Briefly: Sodium channel-blocking assay, Nav1.2 counter-screen. The format is cell-based, rat. The settings on record: Table 3, natural toxins. A general note: Counterscreens check selectivity or assay interference.
In the next assay the target is human Nav1.7 (Homo sapiens, UniProt Q15858). The format is cell-based. To be noted: Table 3, natural toxins.
Chain of human Nav1.7 (Q15858 other isoform, or with tags, fused parts or gaps): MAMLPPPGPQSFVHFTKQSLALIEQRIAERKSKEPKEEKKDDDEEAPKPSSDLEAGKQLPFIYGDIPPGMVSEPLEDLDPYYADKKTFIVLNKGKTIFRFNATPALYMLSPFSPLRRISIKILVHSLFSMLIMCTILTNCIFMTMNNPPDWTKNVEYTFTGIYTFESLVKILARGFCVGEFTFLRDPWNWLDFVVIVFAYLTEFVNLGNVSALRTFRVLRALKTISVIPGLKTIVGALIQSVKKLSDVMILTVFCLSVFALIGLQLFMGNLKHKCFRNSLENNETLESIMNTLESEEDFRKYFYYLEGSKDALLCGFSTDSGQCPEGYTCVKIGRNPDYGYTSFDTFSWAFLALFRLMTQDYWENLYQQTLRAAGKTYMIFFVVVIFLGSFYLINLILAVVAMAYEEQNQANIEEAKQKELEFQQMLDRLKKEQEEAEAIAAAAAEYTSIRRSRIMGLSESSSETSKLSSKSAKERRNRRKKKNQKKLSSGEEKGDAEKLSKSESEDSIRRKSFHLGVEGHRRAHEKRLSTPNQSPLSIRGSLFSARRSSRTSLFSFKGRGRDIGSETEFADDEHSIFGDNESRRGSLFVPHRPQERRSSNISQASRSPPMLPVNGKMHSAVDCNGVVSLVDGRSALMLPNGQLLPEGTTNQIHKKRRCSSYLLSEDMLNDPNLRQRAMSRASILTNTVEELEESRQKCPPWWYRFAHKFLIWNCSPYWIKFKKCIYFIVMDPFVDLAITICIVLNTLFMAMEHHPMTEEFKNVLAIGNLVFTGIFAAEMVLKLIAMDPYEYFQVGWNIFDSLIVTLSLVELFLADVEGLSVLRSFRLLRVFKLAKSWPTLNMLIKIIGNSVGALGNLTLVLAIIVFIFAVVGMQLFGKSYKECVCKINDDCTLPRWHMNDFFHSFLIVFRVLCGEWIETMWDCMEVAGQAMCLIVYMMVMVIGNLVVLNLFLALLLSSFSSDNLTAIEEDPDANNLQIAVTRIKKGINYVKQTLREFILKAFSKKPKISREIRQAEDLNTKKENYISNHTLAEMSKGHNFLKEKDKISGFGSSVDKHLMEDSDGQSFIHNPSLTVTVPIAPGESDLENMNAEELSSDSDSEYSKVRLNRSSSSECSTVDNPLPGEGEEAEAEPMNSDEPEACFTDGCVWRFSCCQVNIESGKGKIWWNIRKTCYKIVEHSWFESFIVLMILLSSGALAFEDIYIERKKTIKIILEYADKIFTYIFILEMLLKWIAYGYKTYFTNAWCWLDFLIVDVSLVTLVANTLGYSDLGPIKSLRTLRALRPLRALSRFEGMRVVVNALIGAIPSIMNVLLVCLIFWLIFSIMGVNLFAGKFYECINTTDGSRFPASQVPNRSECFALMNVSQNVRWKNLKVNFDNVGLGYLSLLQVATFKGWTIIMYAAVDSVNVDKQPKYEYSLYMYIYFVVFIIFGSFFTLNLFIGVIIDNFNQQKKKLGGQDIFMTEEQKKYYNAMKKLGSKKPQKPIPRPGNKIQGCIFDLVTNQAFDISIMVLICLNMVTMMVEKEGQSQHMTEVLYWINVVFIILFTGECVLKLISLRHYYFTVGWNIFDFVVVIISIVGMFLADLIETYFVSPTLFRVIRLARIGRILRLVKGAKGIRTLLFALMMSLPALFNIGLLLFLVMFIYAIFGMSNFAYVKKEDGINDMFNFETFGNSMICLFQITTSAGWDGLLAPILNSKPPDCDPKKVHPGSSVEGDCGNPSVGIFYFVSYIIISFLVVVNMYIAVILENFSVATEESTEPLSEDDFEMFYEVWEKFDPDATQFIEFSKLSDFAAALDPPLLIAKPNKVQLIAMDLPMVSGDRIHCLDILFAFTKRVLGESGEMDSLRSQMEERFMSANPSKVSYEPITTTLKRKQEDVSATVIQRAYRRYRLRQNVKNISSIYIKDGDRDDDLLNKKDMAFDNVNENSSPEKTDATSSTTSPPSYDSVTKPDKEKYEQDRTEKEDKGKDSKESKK

What is called IC50 is the concentration that gives 50% inhibition. The low end stands for higher potency, the high end for lower potency. With `CC[C@H](C)[C@H](NC(=O)[C@H](CCCCN)NC(=O)[C@H](CCCCN)NC(=O)[C@H](CCCCN)NC(=O)[C@@H]1CSSC[C@@H]2NC(=O)[C@H](CCCCN)NC(=O)[C@H](CCCNC(=N)N)NC(=O)[C@H](CCC(=O)O)NC(=O)[C@H](CCC(=O)O)NC(=O)[C@H](CC(=O)O)NC(=O)[C@@H]3CSSC[C@H](NC(=O)[C@H](C(C)C)NC(=O)[C@H](CC(C)C)NC(=O)CNC(=O)[C@H](CCC(=O)O)NC(=O)[C@H](CSSC[C@H](NC(=O)[C@@H](N)Cc4ccc(O)cc4)C(=O)N[C@@H](CCC(N)=O)C(=O)N[C@@H](CCCCN)C(=O)N[C@@H](Cc4c[nH]c5ccccc45)C(=O)N[C@@H](CCSC)C(=O)N[C@@H](Cc4c[nH]c5ccccc45)C(=O)N[C@@H]([C@@H](C)O)C(=O)N3)NC2=O)C(=O)N[C@@H](CCCNC(=N)N)C(=O)N[C@@H](CC(C)C)C(=O)N[C@@H](Cc2c[nH]c3ccccc23)C(=O)N1)C(=O)N[C@@H](CCC(=O)O)C(=O)N[C@@H](Cc1c[nH]c2ccccc12)C(=O)O` [GsAF II] (H-YCQKWMWTCDEERKCCEGLVCRLWCKKKIEW-OH; disulfide 2-16, 9-21, 15-25), the IC50 with Nav1.2 (rBIIa) was determined as 410 ± 20 nM; at human Nav1.7, 70 ± 10 nM.
